Results as given in ChEMBL document CHEMBL4251751 (J Med Chem, 2018).
pEC50, pIC50: −log10 of the molar value. Active and inactive are the calls of the source. No cut-off for these calls is given here.

What was measured:
[1] = target: T1, Peroxisome proliferator-activated receptor gamma (Homo sapiens, UniProt P37231); assay: Partial agonist activity at human PPARgamma LBD expressed HEK293T cells after 12 to 14 hrs by dual-glo luciferase reporter gene assay
T1 sequence (P37231 whole entry): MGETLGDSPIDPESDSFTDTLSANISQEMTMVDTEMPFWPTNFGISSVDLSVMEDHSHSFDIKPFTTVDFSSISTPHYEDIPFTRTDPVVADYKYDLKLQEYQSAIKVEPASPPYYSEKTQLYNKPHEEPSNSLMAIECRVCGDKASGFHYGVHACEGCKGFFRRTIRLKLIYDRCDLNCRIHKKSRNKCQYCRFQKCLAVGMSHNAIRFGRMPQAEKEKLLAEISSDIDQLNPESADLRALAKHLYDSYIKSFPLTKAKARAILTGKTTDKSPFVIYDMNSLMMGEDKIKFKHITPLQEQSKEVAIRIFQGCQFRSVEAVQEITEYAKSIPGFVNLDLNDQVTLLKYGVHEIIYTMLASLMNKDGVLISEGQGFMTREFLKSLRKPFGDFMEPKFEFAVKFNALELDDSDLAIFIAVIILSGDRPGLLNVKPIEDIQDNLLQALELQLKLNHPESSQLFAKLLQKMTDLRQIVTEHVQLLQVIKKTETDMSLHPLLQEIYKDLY

[2] = target: T2, Bifunctional epoxide hydrolase 2 (Homo sapiens, UniProt P34913); assay: Inhibition of recombinant human sEH using PHOME as substrate preincubated for 30 mins followed by substrate addition and measured after 30 mins by spectrofluorimetry
T2 sequence (P34913 whole entry): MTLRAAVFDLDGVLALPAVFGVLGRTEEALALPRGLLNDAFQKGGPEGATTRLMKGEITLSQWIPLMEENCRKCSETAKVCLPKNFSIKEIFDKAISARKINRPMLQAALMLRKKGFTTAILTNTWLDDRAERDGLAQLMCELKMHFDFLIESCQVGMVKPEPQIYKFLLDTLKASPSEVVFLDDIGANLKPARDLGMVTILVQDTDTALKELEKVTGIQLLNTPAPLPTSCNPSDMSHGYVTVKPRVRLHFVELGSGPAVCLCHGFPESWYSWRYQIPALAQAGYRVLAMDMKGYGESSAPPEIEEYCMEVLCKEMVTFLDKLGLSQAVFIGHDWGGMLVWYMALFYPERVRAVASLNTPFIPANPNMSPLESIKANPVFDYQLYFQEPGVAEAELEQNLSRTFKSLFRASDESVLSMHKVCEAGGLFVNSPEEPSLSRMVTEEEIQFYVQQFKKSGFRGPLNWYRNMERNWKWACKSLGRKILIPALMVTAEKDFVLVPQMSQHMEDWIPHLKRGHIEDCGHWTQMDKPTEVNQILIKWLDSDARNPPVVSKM

[3] = target: T3, Cysteinyl leukotriene receptor 1 (Homo sapiens, UniProt Q9Y271); assay: Antagonist potency at human CysLT1R expressed in African green monkey COS7 cells assessed as inhibition of LTD4-induced Ca2+ levels after 60 mins by fura-2/AM-fluorescence based spectrofluorimetry; assay type: functional, cell-based; conditions: read-out: pA2 (converted)
T3 sequence (Q9Y271 whole entry): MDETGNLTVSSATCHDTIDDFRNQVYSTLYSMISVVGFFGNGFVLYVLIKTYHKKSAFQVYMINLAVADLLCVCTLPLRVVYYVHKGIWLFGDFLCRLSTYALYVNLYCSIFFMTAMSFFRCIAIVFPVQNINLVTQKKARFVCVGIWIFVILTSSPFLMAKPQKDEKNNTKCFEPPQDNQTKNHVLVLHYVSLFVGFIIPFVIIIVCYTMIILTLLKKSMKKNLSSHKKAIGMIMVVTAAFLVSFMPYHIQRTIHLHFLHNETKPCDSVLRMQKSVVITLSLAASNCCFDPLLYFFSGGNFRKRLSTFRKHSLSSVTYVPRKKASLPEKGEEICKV

[4] = target: T4, Peroxisome proliferator-activated receptor gamma (Mus musculus, UniProt P37238); assay: Agonist activity at PPARgamma in mouse 3T3-L1 cells assessed as increase in CD36 mRNA expression at 1 uM after 15 days by quantitative real-time PCR method; assay type: cell-based; conditions: 3t3-l1, 360 h
T4 sequence (P37238 whole entry): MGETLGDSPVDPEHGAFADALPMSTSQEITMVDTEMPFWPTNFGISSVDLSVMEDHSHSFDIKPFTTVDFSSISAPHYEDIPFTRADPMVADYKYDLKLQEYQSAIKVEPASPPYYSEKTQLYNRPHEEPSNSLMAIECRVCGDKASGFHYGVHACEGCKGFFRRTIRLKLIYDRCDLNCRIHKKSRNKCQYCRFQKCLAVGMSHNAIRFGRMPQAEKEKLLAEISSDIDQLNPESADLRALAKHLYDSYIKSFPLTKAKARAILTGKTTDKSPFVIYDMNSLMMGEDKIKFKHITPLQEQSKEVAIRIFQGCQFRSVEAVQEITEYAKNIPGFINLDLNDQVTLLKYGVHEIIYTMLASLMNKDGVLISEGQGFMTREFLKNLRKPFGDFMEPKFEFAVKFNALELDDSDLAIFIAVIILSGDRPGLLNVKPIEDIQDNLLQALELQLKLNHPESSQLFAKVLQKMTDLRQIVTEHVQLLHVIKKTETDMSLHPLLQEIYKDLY

[5] = target: T4, Peroxisome proliferator-activated receptor gamma; assay: Agonist activity at PPARgamma in mouse 3T3-L1 cells assessed as induction of adipocyte differentiation at 1 uM after 15 days by Oil Red O staining-based assay; assay type: cell-based; conditions: 3t3-l1, 360 h
[6] = target: T5, Peroxisome proliferator-activated receptor gamma (Mus musculus) (UniProt P37238); assay: Agonist activity at PPARgamma in mouse 3T3-L1 cells assessed as increase in CPT1A mRNA expression at 1 uM after 15 days by quantitative real-time PCR method; assay type: cell-based
T5 sequence (whole entry): T4 sequence (P37238 whole entry)

pEC50 [1]	pIC50 [2]	Kb [3]	Activity [6]	SMILES	Activity [4]	Activity [5]
6.43	6.17	1.26 nM	–	COc1cc(C(=O)NS(=O)(=O)c2cccc(Cl)c2)ccc1Cc1cn(C)c2ccc(NC(=O)NC3CCCCC3)cc12	–	–
6.70	6.39	12.6 nM	–	COc1cc(C(=O)NS(=O)(=O)c2cccc(F)c2)ccc1Cc1cn(C)c2ccc(NC(=O)NC3CCCCC3)cc12	–	–
6.46	5.83	5.01 nM	–	COc1cc(C(=O)NS(=O)(=O)c2cccc(C(F)(F)F)c2)ccc1Cc1cn(C)c2ccc(NC(=O)NC3CCCCC3)cc12	–	–
–	–	–	Active	CN(CCOc1ccc(CC2SC(=O)NC2=O)cc1)c1ccccn1 (stereo not given) [ROSIGLITAZONE]	Active	Active
6.64	5.60	0.0794 nM	–	COc1cc(C(=O)NS(=O)(=O)c2ccccc2)ccc1Cc1cn(C)c2ccc(NC(=O)OC3CCCC3)cc12	–	–
